# Reference: patent US7332476B2, “Pyridyl substituted ketolide antibiotics” (Novartis AG, priority 2003, dated 2008)
# What was measured:
# [1] = test system: Streptococcus pneumoniae Stpn_280-962; test: MIC, broth microdilution (NCCLS); assay type: cell-based
# Procedure, shortened: (§1)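 NCCLS broth microdilution with 2-fold serial drug dilutions (methanol stocks diluted in water); inoculum 3×10^5–7×10^5 CFU/ml in CAMHB, with 2-5% lysed horse blood for S. pneumoniae. Incubation 18-24 h at 35° C., ambient air, except S. pneumoniae (5-10% CO2). MIC is lowest concentration preventing visible growth.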
# [2] = test system: Streptococcus pneumoniae Stpn_49619; test: MIC, broth microdilution (NCCLS); assay type: cell-based
# Procedure, shortened: as §1
# [3] = test system: S. pneumoniae Stpn_Erm 6849; test: MIC, broth microdilution (NCCLS); assay type: cell-based, Streptococcus pneumoniae; conditions: Table 5, Strain ID H (Table 4): S. pneumoniae Stpn_Erm 6849; unit assumed
# Procedure, shortened: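 S. pneumoniae MIC by NCCLS broth microdilution in cation-adjusted Mueller-Hinton broth with 2-5% lysed horse blood, inoculum 3×10^5–7×10^5 CFU/ml, 2-fold drug dilutions. Incubated 18-24 hours at 35° C. in 5-10% CO2; MIC is lowest concentration preventing visible growth.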
# [4] = test system: Streptococcus pyogenes Stpy_8668; test: MIC, broth microdilution (NCCLS); assay type: cell-based
# Procedure, shortened: as §1
# [5] = test system: Streptococcus pneumoniae Stpn_Mef 5654; test: MIC, broth microdilution (NCCLS); assay type: cell-based; conditions: in µg/mL (unit assumed)
# Procedure, shortened: as §1
# [6] = test system: E. coli Esco_25922; test: MIC, broth microdilution (NCCLS); assay type: cell-based; conditions: Table 5, Strain ID M (Table 4): E. coli Esco_25922; unit assumed
# Experimental: Strains. The bacterial isolates listed in Table 4 were cultivated from −70° C. frozen stocks by two consecutive overnight passages (P1, P2) at 35° C. on 5% blood agar (Remel, Lenexa, Kans.). Chocolate agar (Remel) is used for Haemophilus influenzae. H. influenzae and Streptococcus pneumoniae are incubated in 5-10% CO2
# Drug Stock Preparation. To determine the amount of solvent to be used to give the desired final concentration, the formula “weight obtained in mg/final concentration in mg/ml” will be used. It will give the amount of solvent in ml needed to be added to give the desired concentration. For example, if 2.5 mg/ml is the desired concentration and the weight of compound is 13.7 mg, then the amount of solvent to be added is […]. Methanol is used as the solvent to dissolve the test compounds. Further dilution of stock is done in sterile, deionized water. Drug stocks are kept frozen at −70° C., protected from light.
# Susceptibility Testing. MICs are determined by the broth microdilution method in accordance with the NCCLS guidelines. In brief, organism suspensions are adjusted to a 0.5 McFarland standard to yield a final inoculum between 3×10^5 and 7×10^5 CFU/ml. Drug dilutions and inocula are made in sterile, cation adjusted Mueller-Hinton Broth (CAMHB) (Remel) for all but S. pneumoniae [CAMHB with 2-5% lysed horse blood (Remel)] and H. influenzae [Haemophilus Test Medium (Remel)]. An inoculum volume of 100 μl is added to wells containing 100 μl of broth with 2-fold serial dilutions of drug. All inoculated microdilution trays are incubated in ambient air at 35° C. for 18-24 hours, except for S. pneumoniae, and H. influenzae (both at 5-10% CO2).
# Following appropriate incubation, the MIC is determined and the MIC is defined as the lowest concentration of the drug that prevented visible growth.
# [7] = test system: Streptococcus pneumoniae Stpn_297-749; test: MIC, broth microdilution (NCCLS); assay type: cell-based
# Procedure, shortened: as §1
# [8] = test system: Streptococcus pneumoniae Stpn_Mef S 3427; test: MIC, broth microdilution (NCCLS); assay type: cell-based
# Procedure, shortened: as §1
# [9] = test system: Enterococcus faecalis Enfa_29212; test: MIC, broth microdilution (NCCLS); assay type: cell-based
# Procedure, shortened: as §1
# [10] = test system: Haemophilus influenzae Hain_49247; test: MIC, broth microdilution (NCCLS); assay type: cell-based; conditions: unit assumed
# [11] = test system: Staphylococcus epidermidis Step_14990; test: MIC, broth microdilution (NCCLS); assay type: cell-based
# Procedure, shortened: as §1
# [12] = test system: Staphylococcus epidermidis Step_f50654; test: MIC, broth microdilution (NCCLS); assay type: cell-based
# Procedure, shortened: as §1
# [13] = test system: Streptococcus pneumoniae Stpn_Erm S 4297; test: MIC, broth microdilution (NCCLS); assay type: cell-based
# Procedure, shortened: as §1
# [14] = In vivo pharmacokinetic study in rats, whole lung (IV and PO); conditions: male, Sprague-Dawley, 5 mg/kg, rat
# Experimental: (§2) Animal Models. A total of 54 male Sprague-Dawley rats, weighing 200 grams in average, were evaluated for pharmacokinetic studies of representative pyridyl substituted ketolides. Rats were under overnight food restriction and received water ad libitum. Rats were acclimated for approximately 5 days before antibiotic administration.
# (§3) Antibiotic Administration. Rats were given bolus administration through (IV) and oral (PO) routes. Representative pyridyl substituted ketolides and telithromycin, for comparison, were diluted in 0.85% saline to a concentration of 15.0 mg/ml, and the resulting pH was adjusted using 1N acetic acid until the compound was in solution. Approximately 200 microliters of the compound solution was administered to the rats. The target dose for IV and PO administration was 5 mg/kg and 15 mg/kg, respectively.
# (§4) Sample Collection. Plasma and whole lung samples were collected from the rats. Plasma samples were obtained from blood samples by centrifugation at 3000 RPM for 10 min. Heparin was added in the plasma as an anticoagulant. Whole lung samples were homogenized in deionized water. Samples were stored at −80° C. A total of 9 time points were collected in triplicate at 0.083, 0.25, 0.5, 1, 2, 4, 6, 8, and 24 hrs. Ketolide concentrations in plasma and lung were determined by well-established non-GLP LC-MS-MS methods. PK parameters were estimated from the raw bioanalytical data using WinNolin software (Version 4.0, Pharsight Corporation, CA). […] All representative compounds were compared to telithromycin.
# [15] = In vivo pharmacokinetic study in rats, plasma (IV and PO); design: species or system Sprague-Dawley rats; conditions: rat
# Experimental: as §2, §3, §4
# [16] = test system: Haemophilus influenzae Hain_960730503-3; test: MIC, broth microdilution (NCCLS); assay type: cell-based; conditions: Table 10, Strain ID I (Table 8): Haemophilus influenzae Hain_960730503-3; in µg/mL (unit assumed)
# Procedure, shortened: (§5)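 NCCLS broth microdilution; CAMHB / HTM (H. influenzae); inoc 3×10^5–7×10^5 CFU/ml; 35° C, 18-24 h, H. influenzae 5-10% CO2; MIC = no visible growth.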
# [17] = test system: Haemophilus influenzae Hain_953460299-3; test: MIC, broth microdilution (NCCLS); assay type: cell-based; conditions: Table 10, Strain ID K (Table 8): Haemophilus influenzae Hain_953460299-3; in µg/mL (unit assumed)
# Procedure, shortened: as §5
# [18] = test system: Staphylococcus aureus Stau_33591; test: MIC, broth microdilution (NCCLS); assay type: cell-based; conditions: Table 10, Strain ID B (Table 8): Staphylococcus aureus Stau_33591; unit assumed
# Procedure, shortened: as §5
# [19] = test system: Haemophilus influenzae Hain_2762; test: MIC, broth microdilution (NCCLS); assay type: cell-based; conditions: Table 10, Strain ID L (Table 8): Haemophilus influenzae Hain_2762; in µg/mL (unit assumed)
# Procedure, shortened: as §5
# [20] = test system: Haemophilus influenzae Hain_960820544-3; test: MIC, broth microdilution (NCCLS); assay type: cell-based; conditions: Table 10, Strain ID J (Table 8): Haemophilus influenzae Hain_960820544-3; in µg/mL (unit assumed)
# Procedure, shortened: as §5
# [21] = test system: Enterococcus faecalis Enfa_bc 11148-2; test: MIC, broth microdilution (NCCLS); assay type: cell-based; conditions: Table 10, Strain ID F (Table 8): Enterococcus faecalis Enfa_bc 11148-2; in µg/mL (unit assumed)
# Procedure, shortened: as §5
# [22] = test system: Staphylococcus aureus Stau_29213; test: MIC, broth microdilution (NCCLS); assay type: cell-based; conditions: Table 10, Strain ID A (Table 8): Staphylococcus aureus Stau_29213
# Procedure, shortened: as §1
# [23] = Table 5, Strain ID G (Table 4): S. pneumoniae Stpn_280-962 Pen S
# [24] = Table 5, Strain ID E (Table 4): S. pneumoniae Stpn_49619
# [25] = Table 5, Strain ID D (Table 4): S. pyogenes Stpy_8668
# [26] = Table 5, Strain ID J (Table 4): S. pneumoniae Stpn_Mef 5654
# [27] = Table 5, Strain ID F (Table 4): S. pneumoniae Stpn_297-749 Pen R
# [28] = Table 5, Strain ID C (Table 4): E. faecalis Enfa_29212, in µg/mL (unit assumed)
# [29] = Table 5, Strain ID L (Table 4): H. influenzae Hain_49247
# [30] = Table 5, Strain ID A (Table 4): S. epidermidis Step_14990, in µg/mL (unit assumed)
# [31] = Table 5, Strain ID B (Table 4): S. epidermidis Step_f50654 Pen S, in µg/mL (unit assumed)
compound,measurement,setting,value
CC[C@H]1OC(=O)[C@H](C)C(=O)[C@H](C)[C@@H](OC2O[C@H](C)C[C@H](N(C)C)[C@H]2O)[C@@](C)(OC)C[C@@H](C)C(=O)[C@H](C)[C@H]2N(CCCCn3cnc(-c4ccccc4)c3)C(=O)O[C@]12CC (stereo partly drawn) [Compound 7281],MIC,[1]; [23],=0.05
same,MIC,[2]; [24],=0.05
same,MIC,[3],0.2 µg/mL
same,MIC,[4]; [25],=0.05
same,MIC,[5]; [26],0.4
same,MIC,[6],25 µg/mL
same,MIC,[7]; [27],=0.05
same,MIC,"[8]; Table 5, Strain ID K (Table 4): S. pneumoniae Stpn_Mef S 3427",=0.05
same,MIC,[9]; [28],0.1
same,MIC,[10]; [29],3.13 µg/mL
same,MIC,[11]; [30],0.2
same,MIC,[12]; [31],0.1
same,MIC,"[13]; Table 5, Strain ID I (Table 4): S. pneumoniae Stpn_Erm S 4297",=0.05
CC[C@H]1OC(=O)[C@H](C)C(=O)[C@H](C)[C@@H](OC2O[C@H](C)C[C@H](N(C)C)[C@H]2O)[C@@](C)(OC)C[C@@H](C)C(=O)[C@H](C)[C@H]2N(CCCCn3cnc4ccccc43)C(=O)O[C@]12CC (stereo partly drawn) [Compound 7282],MIC,[1]; [23],=0.05
same,MIC,[2]; [24],=0.05
same,MIC,[3],0.78 µg/mL
same,MIC,[4]; [25],=0.05
same,MIC,[5]; [26],0.4
same,MIC,[6],12.5 µg/mL
same,MIC,[7]; [27],=0.05
same,MIC,"[8]; Table 5, Strain ID K (Table 4): S. pneumoniae Stpn_Mef S 3427, in µg/mL (unit assumed)",0.1
same,MIC,[9]; [28],0.1
same,MIC,[10]; [29],3.13 µg/mL
same,MIC,[11]; [30],0.4
same,MIC,[12]; [31],0.2
same,MIC,"[13]; Table 5, Strain ID I (Table 4): S. pneumoniae Stpn_Erm S 4297, unit assumed",0.2 µg/mL
C=C[C@]12OC(=O)N(CCCCn3cnc(-c4ccc(Cl)nc4)c3)[C@@H]1[C@@H](C)C(=O)[C@H](C)C[C@](C)(OC)[C@H](OC1O[C@H](C)C[C@H](N(C)C)[C@H]1O)[C@@H](C)C(=O)[C@@H](C)C(=O)O[C@@H]2CC (stereo partly drawn) [XX],MIC,"[1]; Table 10, Strain ID O (Table 8): Streptococcus pneumoniae Stpn_280-962",=0.05
same,MIC,"[2]; Table 10, Strain ID M (Table 8): Streptococcus pneumoniae Stpn_49619",=0.05
same,half-life,"[14]; IV, whole lung, read-out: t1/2, IV Lung (converted)",1.4 h
same,Kp,"[14]; lung/plasma, iv, read-out: L/P ratio, IV",94
same,half-life,"[15]; male, Sprague-Dawley, 5 mg/kg, IV, plasma, read-out: t1/2, IV Plasma (converted)",1.3 h
same,AUC,"[15]; male, Sprague-Dawley, plasma, IV, dose IV = 5 mg/kg (Compound XIV: IV = 15)",2300 ng·h/mL
same,clearance,"[15]; male, Sprague-Dawley, plasma, intravenous",107 mL/min/kg
same,Vd,"[15]; male, Sprague-Dawley, plasma, intravenous, read-out: Vss",12 L/kg
same,"F, PO",[15]; PO = 15 mg/kg,26%
same,MIC,[16],3.13
same,MIC,[17],6.25
same,MIC,[18],> 50 µg/mL
same,MIC,[19],0.78
same,MIC,[20],3.13
same,MIC,[21],0.1
same,MIC,"[4]; Table 10, Strain ID G (Table 8): Streptococcus pyogenes Stpy_8668",=0.05
same,MIC,"[5]; Table 10, Strain ID P (Table 8): Streptococcus pneumoniae Stpn_Mef 5654",0.2
same,MIC,"[7]; Table 10, Strain ID N (Table 8): Streptococcus pneumoniae Stpn_297-749",=0.05
same,MIC,"[8]; Table 10, Strain ID Q (Table 8): Streptococcus pneumoniae Stpn_Mef S 3427",=0.05
same,MIC,"[9]; Table 10, Strain ID E (Table 8): Enterococcus faecalis Enfa_29212",=0.05
same,MIC,"[10]; Table 10, Strain ID H (Table 8): Haemophilus influenzae Hain_49247",3.13 µg/mL
same,MIC,[22],=0.05
same,MIC,"[11]; Table 10, Strain ID C (Table 8): Staphylococcus epidermidis Step_14990",=0.05
same,MIC,"[12]; Table 10, Strain ID D (Table 8): Staphylococcus epidermidis Step_f50654",=0.05
same,MIC,"[13]; Table 10, Strain ID R (Table 8): Streptococcus pneumoniae Stpn_Erm S 4297",=0.05
